SMILES: O=Cc1c(O)cccc1OCC(=O)N(C1CCOCC1)C1CCOCC1 [GBT001203, 2-(2-formyl-3-hydroxyphenoxy)-N,N-bis(tetrahydro-2H-pyran-4-yl)acetamide]
- melting point: 272 to 275 °C
